System: SN12C-shVHL RNAi and ACHN-shVHL RNAi xenograft tumors
Assay: Subcutaneous xenograft tumor growth, VHL knockdown tumors
Format: in vivo, SCID mice
Settings: 0.1 mg/kg CCI-779 daily
Experimental: FIGS. 1A-1E. Effects of VHL knockdown on sensitivity to CCI-779. (a) Immunoblotting of lysates derived from shRNA and control (empty vector, V) in SN12C, using antibodies against VHL (both isoforms detected), HIF-1α, HIF-2α, GLUT-1, CA-IX and β-Actin (as a loading control). (b) SN12C-CSCG and SN12C-VHLshRNA cells (1×10^5) were cultured in 10% serum rich media, in the presence of vehicle, 1 or 10 nM of CCI-779 for 5 days. Cell growth was measured by cell counts (n=3). […] (c) SN12C-CSCG (C1) and SN12C-CSCG shVHL RNA (C2) cells were injected into SCID mice at a dose of 1×10^6 cells per mouse (n=30). […] Phosphorylated-S6 protein in SN12C-CSCG and SN12C-VHL shRNA xenograft tumors treated with vehicle or 0.1 mg/kg of CCI-779 was measured by immunoblot C3 and C4). […]
For in vitro experiments, cells (5×10^4) were plated and treated with 1 and 10 nM CCI-779 (kind gift of J. Gibbons, Wyeth) or vehicle (ethanol). On day 5-post treatment, cells were trypsinized, resuspended in DMEM with 10% FBS and counted using the VI CELL counter (Beckman Coulter), according to the manufacturer's instructions. […] In vivo tumorigenicity was measured by injection of 5×10^5 SN12C-CSCG, ACHN-CSCG, SN12C-CSCG-VHLshRNAi, ACHN-CSCG-VHLshRNAi, SN12C-CSCG-VHLshRNAi-pBABE, SN12C-CSCG-VHLshRNAi-pBABE-HA-HIF-2α (P405A; P531A) cells in 100 μl of Matrigel (Collaborative Biomedical) subcutaneously into the flanks of SCID mice. […]

CO[C@H]1C[C@@H]2CC[C@@H](C)[C@@](O)(O2)C(=O)C(=O)N2CCCC[C@H]2C(=O)O[C@H]([C@H](C)C[C@@H]2CC[C@@H](OC(=O)C(C)(CO)CO)[C@H](OC)C2)CC(=O)[C@H](C)/C=C(\C)[C@@H](O)[C@@H](OC)C(=O)[C@H](C)C[C@H](C)/C=C/C=C/C=C/1C [CCI-779]
growth of the VHL shRNAi tumors: completely blocked the growth

Source: patent US9261498B2, “Biomarker for sensitivity to mTOR inhibitor therapy in kidney cancer” (The Regents of the University of California, priority 2005, dated 2016)
